Here are results for one compound from article PMC5507927, “Lybatides from Lycium barbarum Contain An Unusual Cystine-stapled Helical Peptide Scaffold” (Scientific Reports, 2017).

Molecules are shown by their SMILES. Positions of bridges follow the written chain, without caps; N, C: chain ends. Residues, ends and D or L forms follow the SMILES beside them.

One data set relates to trypsin. Briefly: Enzymatic stability with trypsin (RP-HPLC profile against control). It counts as in vitro ADME. The conditions noted are these: trypsin (1 μL of 0.5 μg/μL), 37 °C, 10 μg peptide in 100 μL 100 mM ammonium bicarbonate buffer pH 7.8, RP-HPLC profile compared with control without trypsin, read-out: peptide not degraded when incubated with trypsin. As for the experimental part: CRPs with a well-defined disulfide core are known for their compact structure and high resistance to heat and enzymatic degradation. This stability is an important characteristic for CRPs as putative bioactive peptides in order for them to survive decoction processes in traditional herbal preparations and to retain both bioavailability and pharmacological effects by oral administration. […] A total of 96% of lyba1 remained after heating in boiling water at 100 °C for 2 h. Similarly, 99% of the peptide remained intact after incubation in 2 M HCl for 3 h, and 99% of the peptide was not degraded when incubated with trypsin for 3 h (Fig. 5).
Figure 5 Stability assays of lybatide, lyba1. (A) Thermal stability of lyba1 incubated at 100 °C for 2 h. (B) Acidic condition stability of lyba1 incubated in 2.0 M HCl […] for […]. […] (D) Stability of lyba1 incubated in human serum for 60 min at 37 °C, DALK was used as a control. The molecular weight of the peak was determined by MALDI-MS. TEXT PRINTED IN THE PICTURE: (A) lyba1: Cald.: 3509; Found: 3509 | (B) lyba1: Cald.: 3509; Found: 3509 | (C) lyba1: Cald.: 3509; Found: 3509 DOUBTS OF THE COPYIST ABOUT THIS PICTURE: lyba1, panels A-C: 'Cald.' and 'Found' are printed with no measure or unit. I took them as molecular weight, but they may be only mass-spectrometric peak identification. […]

In data set [1] the test system is adenocarcinomic human alveolar basal epithelial cells (A549, ATCC CCL-185). The data set can be described thus: MTT cell toxicity assay. It is filed as cell-based. Conditions: overnight incubation, tested up to 100 μM (method section: 0.01-10 μM). As for the experimental part: (§1) Many CRPs including defensins, thionins and hevein-like peptides display antimicrobial or cytotoxic activity.
(§2) Lybatide lyba1 was tested for its cytotoxicity effect against human umbilical vein endothelial cells (HUVEC-CS, ATCC CRL-2873), monkey kidney epithelial cells (Vero, ATCC CCL-81) and adenocarcinomic human alveolar basal epithelial cells (A549, ATCC CCL-185). Briefly, 1 × 10^4 cells per well in 100 μL were seeded into a 96-well plate (TPP, Switzerland) and incubated overnight. The supernatant was removed, and the cells were washed twice with phosphate buffered saline (PBS; Gibco, USA). The cells were then treated with lyba1 at concentrations 0.01 μM, 0.1 μM, 1 μM, and 10 μM and incubated overnight, with 10% DMSO used as positive control.
(§3) After incubation, MTT was added to the wells and the plate was incubated for 1.5 h at 36.7 °C. Next, 200 μL of 100% DMSO was added, incubated for 2 h, and the absorbance was determined with a microplate reader at 550 nm wavelength.
On the technique in general: Tetrazolium dyes change colour on reduction, which living cells bring about.

Data set [2] concerns human umbilical vein endothelial cells (HUVEC-CS, ATCC CRL-2873). The data set can be described thus: MTT cell toxicity assay. It is filed as cell-based. The conditions noted are these: overnight incubation, tested up to 100 μM (method section: 0.01-10 μM). As for the experimental part: as §1, §2, §3
Data set [3] relates to monkey kidney epithelial cells (Vero, ATCC CCL-81). The data set can be described thus: MTT cell toxicity assay. The conditions noted are these: overnight incubation, tested up to 100 μM (method section: 0.01-10 μM). It counts as cell-based. As for the experimental part: as §1, §2, §3

Take `CC[C@H](C)[C@@H]1NC(=O)[C@@H]2CSSC[C@H](NC(=O)[C@H](CO)NC(=O)[C@@H](N)CC(=O)O)C(=O)N[C@@H](CO)C(=O)N[C@@H](CCC(=O)O)C(=O)N[C@@H](Cc3ccc(O)cc3)C(=O)N[C@H]3CSSC[C@@H](C(=O)N4CCC[C@H]4C(=O)N[C@@H](CO)C(=O)O)NC(=O)[C@H](CSSC[C@H](NC(=O)[C@H](CO)NC(=O)[C@H](CC(N)=O)NC(=O)[C@H](CC(N)=O)NC(=O)[C@H](CO)NC3=O)C(=O)N3CCC[C@H]3C(=O)N[C@@H](Cc3ccc(O)cc3)C(=O)N[C@H]3CSSC[C@H](NC(=O)[C@H](CC(C)C)NC(=O)[C@H]([C@@H](C)O)NC(=O)[C@H](Cc4ccc(O)cc4)NC(=O)[C@H](CC(C)C)NC(=O)[C@H](CCCCN)NC(=O)[C@H](CCC(N)=O)NC(=O)CNC(=O)[C@H](CC(=O)O)NC3=O)C(=O)N2)NC(=O)[C@H]([C@@H](C)O)NC(=O)[C@H](CC(N)=O)NC1=O` [lyba1] (H-DSCSEYCSNNSCPYCDGQKLYTLCCINTCCPS-OH; disulfide 3-25, 7-30, 12-29, 15-24): the remaining at 3 h, 100 µg/mL in the data set on trypsin stood at 99%. For the same compound, the cytotoxic effect result in data set [1], in data set [2] and in data set [3] was “did not display any cytotoxic effect” each time.
